Assays:
[1] = ambient temperatures; cited from earlier work
[2] = Hydroscopicity check: granulated material stored overnight in the open; format: physicochemical; settings: for Hydroscopicity of granulated material (in words): material melt-granulated at about 340-360° F.; for % Gain (weight, stored in the open): 24 hrs
Procedure: A sample of the material granulated in the previous run at about 350° F. was screened, and the material falling into a −8 mesh class was stored overnight in the open to check for hydroscopicity.

Pioneer brand 34RO7 corn = assay: Greenhouse evaluation study on use of ZDC as zinc fertilizer on corn; format: in vivo; settings: for Dry Matter: corn harvested at 5-6 leaf stage, low-Zn Wymore silt loam soil; for Uptake P / Uptake Zn: calculated as dry matter times concentration; for Plant concentration P / Plant concentration Zn: dry plant material, ICP
Procedure: A greenhouse study was conducted to evaluate ZDC.
The soil source was a surface soil from a severely eroded Wymore silt loam soil (fine, smectitic, mesic Aquertic Argiudolls). Zinc deficiency symptoms on corn had been observed on the site during the 1999 growing season.
The soil was air-dried and sieved through a 1 cm coarse sieve. Five and one-half inch top diameter, plastic-lined pots were used. For each pot, 1600 g of soil was weighed into a plastic bag, and 1 g of monoammonium phosphate (11-52-0) was added to the plastic bags as a nitrogen and phosphorous source to ensure adequate growth. The MPA/soil was thoroughly mixed. About ⅔ of the soil from the thoroughly mixed MAP/soil was added to the plastic-lined pot, with roughly 2 inches of soil remaining to be added to the pot after starter fertilizer application and seed planting. A small furrow was made across the pot and a MAP/zinc starter mix added. An inch of soil was added and 4 seeds of Pioneer brand 34RO7 corn was planted directly over the fertilizer band, and the rest of the soil was added to the pot to cover the seed to one inch deep. Planting was on March 24. The fertilizer rate was calculated as a starter band rate based on the linear feet in an acre planted in 30 inch rows. A 5″ length of row was used in the calculations. […] Six replications were used. Pots were watered from the surface using distilled water. All pots received a blanket application of (NH4)2SO4 at the rate of 50#N/acre at the initial watering and twice more during the duration of the study.
Pots were thinned to three plants per pot approximately 1 week after emergence. Plants were harvested April 28 for dry matter yield by clipping about one-half inch above the soil surface. Samples were oven-dried at 65° C. for 48 hours and weighed.
The dry plant material was ground through a stainless steel small plant grinder to pass a 2 mm sieve. A quarter gram was weighed, wet-ashed with nitric-perchloric acid, and P and Zn concentration determined using an inductive couple plasma (ICP) instrument. Zinc and P uptake were calculated as dry matter times concentration.

SMILES: [Cl-].[Cl-].[Zn+2] [zinc chloride]
- Zinc content of solution (solubility) [1]: 30 % zinc

SMILES: N.N.[Cl][Zn][Cl] [ZDC, Zinc diammine chloride]
- Hydroscopicity of granulated material (in words) [2]: very low hydroscopicity
- Hydroscopicity of granulated material (in words) ([2]; listed as Zn(NH3)2Cl2): did not appear to be hydroscopic
- % Gain (weight, stored in the open) ([2]; −4+6 mesh granulated material): 0.18%
- Weight gained at 24 hrs. ([2]; −4+6 mesh granulated material, starting Wt. 5.0774): 0.0091
- % Gain (weight, stored in the open) ([2]; −8 mesh granulated material): 0.37%
- Weight gained at 24 hrs. ([2]; −8 mesh granulated material, starting Wt. 5.5600): 0.0206
- Plant height, visual (10# Zn vs 1# Zn) (Pioneer brand 34RO7 corn; 10# Zn as ZDC compared with 1# Zn as ZDC, from shortly after emergence throughout the study): slightly shorter
- Dry Matter (Pioneer brand 34RO7 corn; Zn rate 1 lb/ac as starter band): 7.88 g/pot
- Uptake P (Pioneer brand 34RO7 corn; Zn rate 1 lb/ac): 28.4 mg/pot
- Uptake Zn (Pioneer brand 34RO7 corn; Zn rate 1 lb/ac): .21 μg/pot
- Plant concentration P (Pioneer brand 34RO7 corn; Zn rate 1 lb/ac): .36%
- Plant concentration Zn (Pioneer brand 34RO7 corn; Zn rate 1 lb/ac): 27 ppm
- Dry Matter (Pioneer brand 34RO7 corn; Zn rate 10 lb/ac as starter band): 7.44 g/pot
- Uptake P (Pioneer brand 34RO7 corn; Zn rate 10 lb/ac): 24.6 mg/pot
- Uptake Zn (Pioneer brand 34RO7 corn; Zn rate 10 lb/ac): .35 μg/pot
- Plant concentration P (Pioneer brand 34RO7 corn; Zn rate 10 lb/ac): .33%
- Plant concentration Zn (Pioneer brand 34RO7 corn; Zn rate 10 lb/ac): 47 ppm

Reference: patent US6454828B1 (Nulex, Inc., priority 2000, dated 2002)
